# Test: In-house compatibility observations of the actives with acids / 2,4-D amine salt solution
# Type: physicochemical
# Text: Secondary amine salt formulations diethanolamine, diisopropanolamine) of 2,4-D and other herbicides containing a carboxylic acid function (2,4,5-T, ticlopyr, dicamba, picloram, aminopyralid, others) are extremely hydrophilic, being normally conveyed as a concentrated aqueous solution of high pH to avoid crystallization of the salt/free acid. […] As discussed, these active ingredients have physical-chemical features that make it difficult for them to be used together in the same formulation. In addition to this is the easy decomposition through base-catalyzed hydrolysis, of active ingredients containing the ester function, such as lactofen, if they were soluble or emulsified in an alkaline solution, as is the case of the aqueous solution of amine salts of 2,4-D. This effect was observed when lactofen was dissolved in a naphthenic organic solvent and then emulsified in a solution of 2,4-D dimethylamine salt. Shortly afterwards, lactofen had been decomposed even under mild temperature conditions, which made it impossible to provide this mixture under these conditions as a commercial product. It is also mentioned that, although the degradation kinetics may be different, compounds containing an ester group, such as lactofen, can also undergo solvolysis (hydrolysis if the solvent is water) in the presence of acids, which makes it impossible for lactofen to be transported with 2,4-D without neutralization of the latter by an alkaline compound. Bispyribac sodium is also a compound that easily degrades under different conditions. […] Bispyribac sodium is also known to only remain stable at pH levels close to neutral or slightly alkaline (7 to 9) and at temperatures around 25° C. and in the dark, with an acceleration of degradation under conditions other than these. These features of lactofen and bispyribac sodium make it difficult for one to develop formulations with other active ingredients, which may justify the absence of commercial products with these associated active ingredients.
SMILES,"degradation in the presence of acids (even in the absence of water, observed internally)","degradation in the presence of unneutralized 2,4-D (high acidity of 2,4-D)","decomposition when emulsified in a solution of 2,4-D dimethylamine salt (dissolved in naphthenic organic solvent, emulsified in 2,4-D dimethylamine salt solution, mild temperature)"
"COc1cc(OC)nc(Oc2cccc(Oc3nc(OC)cc(OC)n3)c2C(=O)O)n1 [Bispyribac sodium, bispyribac sodium]",degrades easily,fully degraded,–
"CCOC(=O)C(C)OC(=O)c1cc(Oc2ccc(C(F)(F)F)cc2Cl)ccc1[N+](=O)[O-] (stereo not drawn) [Lactofen, lactofen]",–,–,decomposed

# Source: patent US20240349725A1, “FORMULATION COMPRISING AN ACID FUNCTION ACTIVE INGREDIENT, ESTER FUNCTION ACTIVE INGREDIENT AND SALT AND/OR CHEMICALLY LABILE ACTIVE INGREDIENT, THE USE THEREOF AND METHOD OF PRODUCTION” (Iharabrás S.A. Indústrias Químicas, priority 2021, published 2024)
